# Like-named read-outs stand apart in the source and are kept apart here. Positions of bridges follow the written chain, without caps; N, C: chain ends. Residues, ends and D or L forms follow the SMILES beside them.
# What was measured:
# SKOV3 cells = test: Disruption of human ovarian cancer cell (SKOV3) adhesion; type: cell-based; conditions: for activity in SKOV3 cells (cell adhesion): 0.01-1 mg/mL; for disruption of SKOV3 cell adhesion: 1 mg/mL media, within 24 hours
# Description: FIGS. 37A and 37B are photographs illustrating the effect of N—Ac-CHAVC-Y—NH2 (SEQ ID NO:84) on SKOV3 cell adhesion. A confluent culture of SKOV3 cells was briefly trypsinated and counted using a hemacytometer. The cells were diluted to 5×10^3/mL in MEM (Gibco BRL) containing 10% FBS (Wisent). A 10 mg/mL solution of peptide was added directly to the media at a concentration of 1 mg/mL. The plate was incubated in a humidified chamber at 37° C. for 24 hours in 5% CO2. Morphological changes were evaluated after 24 hours.
# The human ovarian cancer cell line SKOV3 (ATCC #HTB-77) expresses N-cadherin. SKOV3 cells were cultured in a modified MEM-based media containing 10% FCS. Cells were grown in T-250 culture flasks and maintained by periodic subculturing. Cyclic peptides were tested on cells grown in individual wells of 96-well culture dishes (surface area of each well was 0.32 cm^2). Cells were harvested from flasks and seeded at a density of 50,000 cells per well in 0.1 mL media containing the cyclic peptides at concentrations of 1, 0.1, or 0.01 mg/mL, or in the absence of cyclic peptide. Media control wells were also established. Cultures were evaluated periodically by microscopic examination under both bright field and phase contrast conditions. Cultures were maintained for 48 hours.
# [1] = system: chick embryonic chorioallantoic membranes; test: Chick chorioallantoic membrane angiogenesis assay; type: in vivo; conditions: for Percent Inhibition of Angiogenesis: 24 hours; for inhibition of angiogenesis (in words): 3, 17 and 33 μg/mesh
# Description: Another cell adhesion assay evaluates the ability of a modulating agent to block angiogenesis (the growth of blood vessels from pre-existing blood vessels). This ability may be assayed using the chick chorioallantoic membrane assay described by Iruela-Arispe et al., Molecular Biology of the Cell 6:327-343, 1995. Briefly, a modulating agent may be embedded in a mesh composed of vitrogen at one or more concentrations (e.g., ranging from about 1 to 100 μg/mesh). The mesh(es) may then be applied to chick chorioallantoic membranes. After 24 hours, the effect of the peptide may be determined using computer assisted morphometric analysis. A modulating agent should inhibit angiogenesis by at least 25% at a concentration of 33 μg/mesh.
# The chick chorioallantoic membrane assay was used to assess the effects of cyclic peptides on angiogenesis (Iruela-Arispe et al., Molecular Biology of the Cell 6:327-343, 1995). Cyclic peptides were embedded in a mesh composed of vitrogen at concentrations of 3, 17, and 33 μg/mesh. The meshes were then applied to 12-day-old chick embryonic chorioallantoic membranes. After 24 hours, the effects of the peptides on angiogenesis were assessed by computer assisted morphometric analysis.
# PC-3 = test: Cytotoxicity, MTT assay, PC-3; type: cell-based, human
# Procedure, shortened: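 Human primary endothelial cells, fibroblast lines (IAFp2, WI-38) and cancer lines (MDA-MB231, PC-3) receive the CHAVC peptide or the CHGVC control at ≤100 μM. Viability is scored by MTT and DNA synthesis by ^3H-thymidine uptake.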
# chick N-cadherin = target: T1, chick N-cadherin (Gallus gallus, UniProt P10288); test: Neurite outgrowth of rat cerebellar neurons on N-cadherin expressing 3T3 monolayers (Example 15); type: cell-based; conditions: for inhibitory activity on N-cadherin dependent neurite outgrowth, structure/activity statements: Tables 8 and 9; for effect on neurite outgrowth over N-cadherin expressing cells (in words): 500 μg/mL
# T1 construct: expressed in transfected cells; host or cells: 3T3 fibroblasts (monolayer); rat post-natal day 2-3 cerebellar neurons plated on top
# T1 sequence (P10288 165-912): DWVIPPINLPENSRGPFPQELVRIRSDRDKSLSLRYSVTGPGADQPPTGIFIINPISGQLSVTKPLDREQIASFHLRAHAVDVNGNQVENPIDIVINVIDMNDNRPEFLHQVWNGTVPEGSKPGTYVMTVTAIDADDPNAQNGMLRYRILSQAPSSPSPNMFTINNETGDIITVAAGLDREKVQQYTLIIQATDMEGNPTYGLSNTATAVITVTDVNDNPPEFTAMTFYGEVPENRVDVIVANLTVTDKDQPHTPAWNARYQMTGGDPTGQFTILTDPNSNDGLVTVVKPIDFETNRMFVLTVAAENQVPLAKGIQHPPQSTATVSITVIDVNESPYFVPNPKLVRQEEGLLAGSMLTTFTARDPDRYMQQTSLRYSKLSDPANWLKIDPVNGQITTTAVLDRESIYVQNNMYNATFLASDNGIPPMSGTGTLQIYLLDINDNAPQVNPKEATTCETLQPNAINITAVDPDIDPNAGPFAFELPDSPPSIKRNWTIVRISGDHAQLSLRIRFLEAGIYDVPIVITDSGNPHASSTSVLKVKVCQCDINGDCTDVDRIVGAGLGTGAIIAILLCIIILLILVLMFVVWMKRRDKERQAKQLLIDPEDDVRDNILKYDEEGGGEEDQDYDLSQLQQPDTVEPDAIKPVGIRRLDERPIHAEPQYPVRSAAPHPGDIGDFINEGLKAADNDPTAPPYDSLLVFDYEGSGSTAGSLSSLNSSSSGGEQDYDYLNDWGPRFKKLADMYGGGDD
# [2] = 3 μg/mesh, absence (−) of 0.01 mM VEGF
# [3] = 3 μg/mesh, presence (+) of 0.01 mM VEGF
# [4] = 17 μg/mesh, absence (−) of 0.01 mM VEGF
# [5] = 17 μg/mesh, presence (+) of 0.01 mM VEGF
# [6] = 33 μg/mesh, absence (−) of 0.01 mM VEGF
# [7] = 33 μg/mesh, presence (+) of 0.01 mM VEGF
inhibition of N-cadherin dependent neurite outgrowth (in words) (chick N-cadherin; 250 μg/mL),activity on N-cadherin dependent neurite outgrowth (in words) (chick N-cadherin; 125 micrograms/mL or below),SMILES,activity in SKOV3 cells (cell adhesion) (SKOV3 cells),"Percent Inhibition of Angiogenesis [1, 2]","Percent Inhibition of Angiogenesis [1, 3] [%]","Percent Inhibition of Angiogenesis [1, 4] [%]","Percent Inhibition of Angiogenesis [1, 5] [%]","Percent Inhibition of Angiogenesis [1, 6] [%]","Percent Inhibition of Angiogenesis [1, 7] [%]",inhibition of angiogenesis (in words) [1],IC50 (PC-3) [µM],"inhibitory activity on N-cadherin dependent neurite outgrowth, structure/activity statements (chick N-cadherin)",disruption of SKOV3 cell adhesion (SKOV3 cells),effect on neurite outgrowth over N-cadherin expressing cells (in words) (chick N-cadherin),"SKOV3 cell morphology (SKOV3 cells; 0.5 or 1 mg/ml, 24-48 hours (figure legends))",IC50 (PC-3; human) [µM],effect on the N-cadherin response (chick N-cadherin; concentrations up to 62 μg/ml)
,,"CC(=O)N[C@H]1CSSC[C@@H](C(N)=O)NC(=O)[C@H](CC(=O)O)NC(=O)[C@H](C(C)C)NC(=O)[C@H](C)NC(=O)[C@H](Cc2c[nH]cn2)NC(=O)[C@H](C)NC1=O [N—Ac—CAHAVDC—NH2, N-Ac-Cys-Ala-His-Ala-Val-Asp-Cys-NH2] (Ac-CAHAVDC-NH2; disulfide 1-7)",inactive,21%,59,27,72,31,79,inhibited angiogenesis significantly,> 100,completely eliminated inhibitory activity,,,,,
,,"CC(=O)N[C@H]1CSSC[C@@H](C(N)=O)NC(=O)[C@H](C(C)C)NC(=O)CNC(=O)[C@H](Cc2c[nH]cn2)NC1=O [N—Ac—CHGVC—NH2, reference compound]",,,,,,,,,> 100,,had no affect on cell adhesion,had no effect on neurite outgrowth,,,
,,"CC(=O)N[C@H]1CSSC[C@@H](C(N)=O)NC(=O)[C@H](C(C)C)NC(=O)[C@H](C)NC(=O)[C@H](Cc2c[nH]cn2)NC1=O [N—Ac—CHAVC—NH2, N-Ac-Cys-His-Ala-Val-Cys-NH2]",,12%,46,22,51,28,51,,,,disrupted SKOV3 cell adhesion,inhibition of neurite outgrowth,SKOV3 cells retract from one another and round-up,> 100,no significant effect on the N-cadherin response
potent inhibitors of neurite outgrowth,lost activity,CC[C@H](C)[C@@H]1NC(=O)[C@H](CC(=O)O)NC(=O)[C@H](C(C)C)NC(=O)[C@H](C)NC(=O)[C@H](Cc2c[nH]cn2)NC(=O)[C@H](C)NC(=O)[C@@H](NC(C)=O)CSSC[C@@H](C(N)=O)NC1=O (Ac-CAHAVDIC-NH2; disulfide 1-8),inactive,−1%^,21,15,37,33,49,inhibited angiogenesis significantly,> 100,"reduced, but did not eliminate, the activity",,,,,
